The test has as its system LNCaP. Nature of the test: Induction of cell cycle arrest in human LNCaP cells assessed as accumulation of cells at G2/M phase at 5 micromol/L incubated for 48 hrs by PI/RNaseA staining based flow cytometric analysis. It is filed as functional. Particulars: dose 5.0 µmol/L. (In general: Flow cytometry measures light scatter and fluorescence of single cells or particles in a stream.)

The source made the active and inactive calls. No cut-off for these calls is given here.

Regarding `CN1CCN(CCNC(=O)c2cc(-c3ccc4ccccc4c3)nc3c2cnn3-c2ccccc2)CC1`, the result was inactive.
